For experiment [1], the system named is HCT-116. In words: In vitro inhibitory activity against Paclitaxel resistant colon carcinoma HCT VM46 cell line was determined. The experiment is classed as functional, cell-based. The conditions noted are these: Homo sapiens.
Experiment [2] relates to HCT-116. Put plainly: In vitro inhibitory activity against colon carcinoma HCT 116 cell line was determined. The experiment is classed as functional, cell-based. Conditions: Homo sapiens.
In another experiment the test system is A2780. Put plainly: In vitro inhibitory activity against Ovarian A2780 cell line was determined. The experiment is classed as functional, cell-based. Conditions: Homo sapiens.
The target in experiment [3] is Tubulin alpha chain (Sus scrofa) (UniProt P02550). Put plainly: Potency to that of potency of paclitaxel in Tubulin polymerization assay. The experiment is classed as functional.
Tubulin alpha chain (Sus scrofa), sequence (P02550 whole entry, looked up): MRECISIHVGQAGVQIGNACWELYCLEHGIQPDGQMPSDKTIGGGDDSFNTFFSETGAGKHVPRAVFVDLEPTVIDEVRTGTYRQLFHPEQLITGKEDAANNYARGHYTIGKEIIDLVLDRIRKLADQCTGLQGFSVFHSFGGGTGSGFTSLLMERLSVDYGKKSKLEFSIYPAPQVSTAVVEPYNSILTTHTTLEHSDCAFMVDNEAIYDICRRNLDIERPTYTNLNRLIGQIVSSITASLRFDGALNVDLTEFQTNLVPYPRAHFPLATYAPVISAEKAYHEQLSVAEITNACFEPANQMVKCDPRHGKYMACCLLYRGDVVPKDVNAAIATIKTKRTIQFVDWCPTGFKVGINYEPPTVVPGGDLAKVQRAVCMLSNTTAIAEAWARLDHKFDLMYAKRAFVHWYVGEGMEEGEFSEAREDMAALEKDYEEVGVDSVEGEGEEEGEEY

IC50 and Ratio data for three compounds are collected here from ChEMBL document CHEMBL1134759, “Synthesis of a novel C-10 spiro-epoxide of paclitaxel” (Bioorg Med Chem Lett, 2001).

For the compound `CC(=O)O[C@@]12COC1C[C@H](O)[C@@]1(C)C(=O)[C@@]3(CO3)C3=C(C)[C@@H](OC(=O)[C@H](O)[C@@H](NC(=O)c4ccccc4)c4ccccc4)CC(O)([C@@H](OC(=O)c4ccccc4)C21)C3(C)C` (some centres not stated), the values for the 50% inhibitory concentration (IC50) in the experiment with HCT-116 [1], with HCT-116 [2] and in the experiment on A2780 were more than 121 nM, 2 nM and 2.5 nM, respectively. Also, in experiment [3], the Ratio came to 0.5.

Take `COCO[C@H]1CC2OC[C@@]2(OC(C)=O)C2[C@H](OC(=O)c3ccccc3)C3(O)C[C@H](OC(=O)[C@H](O)[C@@H](NC(=O)c4ccccc4)c4ccccc4)C(C)=C(C3(C)C)[C@@]3(CO3)C(=O)[C@@]21C` (some centres not stated): the figures for the IC50 in the experiment with HCT-116 [1], with HCT-116 [2] and in the experiment on A2780 were 14 nM, 1.5 nM and 1.8 nM, respectively. Further, the Ratio in experiment [3] turned out to be 0.7.

As to `CC(=O)O[C@H]1C(=O)[C@@]2(C)C([C@H](OC(=O)c3ccccc3)C3(O)C[C@H](OC(=O)[C@H](O)[C@@H](NC(=O)c4ccccc4)c4ccccc4)C(C)=C1C3(C)C)[C@]1(OC(C)=O)COC1C[C@@H]2O` (some centres not stated), the half-maximal inhibitory concentration (IC50) (as a rule, the concentration at which inhibition is half-maximal) in the experiment on HCT-116 [1] was more than 118 nM; in the experiment with HCT-116 [2], 2.9 nM; in the experiment on A2780 it was 3.5 nM. The Ratio in experiment [3] worked out at 1.
